Assay results taken from patent US10858360B2, “Tricyclic gyrase inhibitors” (priority 2011, dated 2020).
Values after ≈ are worked out from the molar mass of the structure shown.

Key:
E. coli ATCC 25922 = assay: MIC, E. coli ATCC 25922; type: cell-based; conditions: Alamar Blue read after overnight incubation at 35° C.; for MIC: Escherichia coli, ATCC25922, E. coli; for MIC Ec: E. coli
S. aureus ATCC 13709 = assay: MIC, S. aureus ATCC 13709 (Alamar Blue broth microdilution); type: cell-based; conditions: Alamar Blue read after overnight incubation at 35° C.; for MIC: Staphylococcus aureus, ATCC13709, S. aureus; for MIC Sa: S. aureus

Row | SMILES | MIC (E. coli ATCC 25922) [µg/mL] | MIC (S. aureus ATCC 13709) [µg/mL] | MIC Ec (E. coli ATCC 25922) [µg/mL] | MIC Sa (S. aureus ATCC 13709) [µg/mL]
1 | CNc1cc(F)cc2c1[nH]c1nc(Oc3cnc4ccoc4c3)nc(N3CC4CC(N)C4C3)c12 (stereo not drawn) [4.290] | ≤ 0.5 | ≤ 0.5 | – | –
2 | CNc1cc(F)cc2c1[nH]c1nc(Oc3cnc4ccoc4c3)nc(N3CC4C(N)C4C3)c12 (stereo not drawn) [4.291] | ≤ 0.5 | ≤ 0.5 | – | –
3 | CNc1cc(F)cc2c1[nH]c1nc(Oc3cnc4ccoc4c3)nc(N3CC(N)C4(CC4)C3)c12 (stereo not drawn) [4.292] | – | – | ≤0.5 | ≤0.5
4 | CNc1cc(F)cc2c1[nH]c1nc(Oc3cnc4ccoc4c3)nc(N3CC4CCC(N)C4C3)c12 (stereo not drawn) [4.293] | – | – | 1 (≈ 2.11 µM) | ≤0.5
5 | CNc1cc(F)cc2c1[nH]c1nc(Oc3cnc4c(c3)OCCO4)nc(N3CC4CC(N)C4C3)c12 (stereo not drawn) [4.294] | 1 (≈ 2.09 µM) | ≤ 0.5 | – | –
6 | CNc1cc(F)cc2c1[nH]c1nc(Oc3cnc4c(c3)OCCO4)nc(N3C[C@H](N)C4(CC4)C3)c12 [4.295] | ≤ 0.5 | ≤ 0.5 | – | –
7 | CNc1cc(F)cc2c1[nH]c1nc(Oc3cnc(N4CCC4)nc3)nc(N3C[C@H](N)C4(CC4)C3)c12 [4.297] | ≤ 0.5 | ≤ 0.5 | – | –
8 | CNc1cc(F)cc2c1[nH]c1nc(Oc3cnc(N4CC(O)C4)nc3)nc(N3CC4C(N)C4C3)c12 (stereo not drawn) [4.298] | 2 (≈ 4.19 µM) | ≤ 0.5 | – | –
9 | CNc1cc(F)cc2c1[nH]c1nc(Oc3cnc(N4CC(O)C4)nc3)nc(N3C[C@H](N)C4(CC4)C3)c12 [4.299] | 4 (≈ 8.14 µM) | ≤ 0.5 | – | –
10 | CNc1cc(F)cc2c1[nH]c1nc(Oc3ccc4c(c3)C(=O)NCC4)nc(N3CCC4(CC4N)C3)c12 (stereo not drawn) [4.300] | – | – | ≤0.5 | ≤0.5
11 | CNc1cc(F)cc2c1[nH]c1nc(Oc3ccc4c(c3)C(=O)NCC4)nc(N3CC4C(N)C4C3)c12 (stereo not drawn) [4.301] | – | – | 1 (≈ 2.11 µM) | ≤0.5
12 | CNc1cc(F)cc2c1[nH]c1nc(Oc3ccc4c(c3)C(=O)NCC4)nc(N3CC4C[C@@H](N)C4C3)c12 (stereo partly drawn) [4.302] | 2 (≈ 4.1 µM) | ≤ 0.5 | – | –
13 | CNc1cc(F)cc2c1[nH]c1nc(Oc3cncc(C)c3)nc(N3CC4CC(N)C4C3)c12 (stereo not drawn) [4.303] | ≤ 0.5 | ≤ 0.5 | – | –
14 | CCCc1ncc(Oc2nc(N3C[C@H](N)C4(CC4)C3)c3c(n2)[nH]c2c(NC)cc(F)cc23)cn1 [4.304] | ≤ 0.5 | ≤ 0.5 | – | –
15 | CNc1cc(F)cc2c1[nH]c1nc(Oc3cnc4c(c3)OC=CO4)nc(N3C[C@H](N)C4(CC4)C3)c12 [4.305] | – | – | 1 (≈ 2.1 µM) | ≤0.5
16 | CNc1cc(F)cc2c1[nH]c1nc(Oc3ccc(C(C)=O)nc3)nc(N3CC4CCNC4C3)c12 (stereo not drawn) [4.309] | – | – | ≤0.5 | ≤0.5
17 | CNc1cc(F)cc2c1[nH]c1nc(Oc3cnc4[nH]cnc4c3)nc(N3CC4CC(N)C4C3)c12 (stereo not drawn) [4.310] | > 16 | 8 (≈ 17.4 µM) | – | –
18 | CNc1cc(F)cc2c1[nH]c1nc(Oc3cnc4[nH]cnc4c3)nc(N3CC4C(N)C4C3)c12 (stereo not drawn) [4.311] | > 16 | 4 (≈ 8.98 µM) | – | –
19 | CNc1cc(F)cc2c1[nH]c1nc(Oc3cnc4[nH]cnc4c3)nc(N3CC4CCNC4C3)c12 (stereo not drawn) [4.312] | > 16 | 16 (≈ 34.8 µM) | – | –
20 | CNc1cc(F)cc2c1[nH]c1nc(Oc3cnc4[nH]cnc4c3)nc(N3C[C@H](N)C4(CC4)C3)c12 [4.313] | – | – | >16 | 8 (≈ 17.4 µM)
21 | CNc1cc(F)cc2c1[nH]c1nc(Oc3cnc(C(C)(C)C)nc3)nc(N3CC4C(N)C4C3)c12 (stereo not drawn) [4.314] | ≤ 0.5 | ≤ 0.5 | – | –
22 | CNc1cc(F)cc2c1[nH]c1nc(Oc3cnc(C(C)(C)C)nc3)nc(N3C[C@H](N)C4(CC4)C3)c12 [4.315] | ≤ 0.5 | ≤ 0.5 | – | –
23 | CNc1cc(F)cc2c1[nH]c1nc(Oc3cnc(C(C)(C)C)nc3)nc(N3CCC4CNC4C3)c12 (stereo not drawn) [4.317] | 2 (≈ 4.2 µM) | ≤ 0.5 | – | –
24 | CNc1cc(F)cc2c1[nH]c1nc(Oc3cnc(C(C)(C)C)nc3)nc(N3CC[C@@H](N)C3)c12 [4.319] | ≤ 0.5 | ≤ 0.5 | – | –
25 | CNc1cc(F)cc2c1[nH]c1nc(Oc3ccc4ncsc4c3)nc(N3C[C@H]4CC[C@@H](N)[C@H]4C3)c12 [4.320] | 1 (≈ 2.04 µM) | ≤ 0.5 | – | –
26 | CNc1cc(F)cc2c1[nH]c1nc(Oc3ccc4sc(C)nc4c3)nc(N3CC4CCC(N)C4C3)c12 (stereo not drawn) [4.322] | – | – | ≤0.5 | ≤0.5

Row | SMILES | MIC (E. coli ATCC 25922) [µg/mL] | MIC (S. aureus ATCC 13709) [µg/mL] | MIC Ec (E. coli ATCC 25922) [µg/mL] | MIC Sa (S. aureus ATCC 13709) [µg/mL]
27 | CNc1cc(F)cc2c1[nH]c1nc(Oc3cnc(C#N)c(C)c3)nc(N3CC4CC(N)C4C3)c12 (stereo not drawn) [4.323] | – | – | 1 (≈ 2.18 µM) | ≤0.5
28 | CNc1cc(F)cc2c1[nH]c1nc(Oc3cnc(C#N)c(C)c3)nc(N3C[C@H](N)C4(CC4)C3)c12 [4.324] | – | – | ≤0.5 | ≤0.5
29 | CNc1cc(F)cc2c1[nH]c1nc(Oc3cnc(C#N)c(C)c3)nc(N3CC4(CC[C@H]4N)C3)c12 [4.326] | ≤ 0.5 | ≤ 0.5 | – | –
30 | CNc1cc(F)cc2c1[nH]c1nc(Oc3cnc4c(ccn4C)c3)nc(N3CC4CC(N)C4C3)c12 (stereo not drawn) [4.328] | 1 (≈ 2.12 µM) | ≤ 0.5 | – | –
31 | CNc1cc(F)cc2c1[nH]c1nc(Oc3ccc(C#N)nc3)nc(N3C[C@H](N)C4(CC4)C3)c12 [4.329] | – | – | ≤0.5 | ≤0.5
32 | CNc1cc(F)cc2c1[nH]c1nc(Oc3ccc(C#N)nc3)nc(N3CC4CCNC4C3)c12 (stereo not drawn) [4.330] | – | – | ≤0.5 | ≤0.5
33 | CNc1cc(F)cc2c1[nH]c1nc(Oc3ccc(C#N)nc3)nc(N3CCC(N)C3)c12 (stereo not drawn) [4.331] | – | – | ≤0.5 | ≤0.5
34 | CNc1cc(F)cc2c1[nH]c1nc(Oc3ccc(C#N)nc3)nc(N3CC4CC(N)C4C3)c12 (stereo not drawn) [4.332] | – | – | ≤0.5 | ≤0.5
35 | CNc1cc(F)cc2c1[nH]c1nc(Oc3ccc(C#N)nc3)nc(N3CC4(CCC4N)C3)c12 (stereo not drawn) [4.333] | – | – | ≤0.5 | ≤0.5
36 | CNc1cc(F)cc2c1[nH]c1nc(Oc3ccc(C#N)nc3)nc(N3CCC4(C[C@H]4N)C3)c12 (stereo partly drawn) [4.334] | – | – | 8 (≈ 18 µM) | ≤0.5
37 | CNc1cc(F)cc2c1[nH]c1nc(Oc3ccc4sc(N)nc4c3)nc(N3C[C@H]4CC[C@@H](N)[C@H]4C3)c12 [4.335] | 4 (≈ 7.93 µM) | ≤ 0.5 | – | –
38 | CNc1cc(F)cc2c1[nH]c1nc(Oc3ccc4oc(C)nc4c3)nc(N3C[C@H]4CC[C@@H](N)[C@H]4C3)c12 [4.336] | 1 (≈ 2.05 µM) | ≤ 0.5 | – | –
39 | CNc1cc(F)cc2c1[nH]c1nc(Oc3cnc(N4CC(S(=O)(=O)CC5CC5)C4)nc3)nc(N3CC4C(N)C4C3)c12 (stereo not drawn) [4.337] | – | – | 1 (≈ 1.73 µM) | ≤0.5
40 | CNc1cc(F)cc2c1[nH]c1nc(Oc3cnc(N4CC(S(=O)(=O)CC5CC5)C4)nc3)nc(N3C[C@H](N)C4(CC4)C3)c12 [4.338] | – | – | 2 (≈ 3.37 µM) | ≤0.5
41 | CNc1cc(F)cc2c1[nH]c1nc(Oc3cnc(N4CC(C)(N)C4)nc3)nc(N3CC4C(N)C4C3)c12 (stereo not drawn) [4.339] | – | – | 1 (≈ 2.04 µM) | ≤0.5
42 | CNc1cc(F)cc2c1[nH]c1nc(Oc3cnc(N4CC(C)(N)C4)nc3)nc(N3C[C@H](N)C4(CC4)C3)c12 [4.340] | – | – | 2 (≈ 3.96 µM) | 1 (≈ 1.98 µM)
43 | CNc1cc(F)cc2c1[nH]c1nc(Oc3cnc(N4CC(C)(N)C4)nc3)nc(N3CCC4(C[C@@H]4N)C3)c12 (stereo partly drawn) [4.341] | – | – | 1 (≈ 1.98 µM) | ≤0.5
44 | CNc1cc(F)cc2c1[nH]c1nc(Oc3cnc4ccc[n+]([O-])c4c3)nc(N3CC4(CCC4N)C3)c12 (stereo not drawn) [4.342] | – | – | 4 (≈ 8.22 µM) | ≤0.5
45 | CNc1cc(F)cc2c1[nH]c1nc(Oc3cnc(COC)nc3)nc(N3CC(N)C4(CC4)C3)c12 (stereo not drawn) [4.343] | – | – | ≤0.5 | ≤0.5
46 | CNc1cc(F)cc2c1[nH]c1nc(Oc3cnc(COC)nc3)nc(N3CC4CC(N)C4C3)c12 (stereo not drawn) [4.344] | 2 (≈ 4.31 µM) | ≤ 0.5 | – | –
47 | CNc1cc(F)cc2c1[nH]c1nc(Oc3cnc(N4CCCC4=O)nc3)nc(N3CC4C(N)C4C3)c12 (stereo not drawn) [4.345] | 2 (≈ 4.09 µM) | ≤ 0.5 | – | –
48 | CNc1cc(F)cc2c1[nH]c1nc(Oc3cnc(N4CCCC4=O)nc3)nc(N3C[C@H](N)C4(CC4)C3)c12 [4.346] | 4 (≈ 7.94 µM) | ≤ 0.5 | – | –
49 | CNc1cc(F)cc2c1[nH]c1nc(Oc3ccc(C4CC4)nc3)nc(N3CC(N)C4(CC4)C3)c12 (stereo not drawn) [4.347] | – | – | 1 (≈ 2.18 µM) | ≤0.5
50 | CNc1cc(F)cc2c1[nH]c1nc(Oc3cccnc3)nc(N3CC4CC(N)C4C3)c12 (stereo not drawn) [4.348] | – | – | ≤0.5 | ≤0.5
51 | CNc1cc(F)cc2c1[nH]c1nc(Oc3ccc[n+]([O-])c3)nc(N3CC4C[C@@H](N)C4C3)c12 (stereo partly drawn) [4.349] | 1 (≈ 2.3 µM) | ≤ 0.5 | – | –
